Data published in the supplement of paper PMC10307832.

Key:
Assay in all cases: relative viability (nuclei count vs DMSO), 5 days (fraction); higher = more cells survive
[1] = compound: C=C(c1ccc(C(=O)O)cc1)c1cc2c(cc1C)C(C)(C)CCC2(C)C [Bexarotene] + CS(=O)(=O)CCNCc1ccc(-c2ccc3ncnc(Nc4ccc(OCc5cccc(F)c5)c(Cl)c4)c3c2)o1 [Lapatinib] (partner 2 µM)
How it was run: (§1)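 Nuclei were stained with Hoechst during a one-step fixation (final 0.05% Triton X-100, 1% formaldehyde, 1 ug/ml Hoechst) carried out 5 days after dosing, then counted on 4× images. The cells, lung cancer lines in 1536-well plates, had been dosed by pin tool the day after seeding with one drug alone or a fixed anchor-drug dose plus five library-drug doses (not always all listed) in √10 steps. Relative viability is the nuclei count in treated wells divided by that in vehicle wells, and each value is the median of duplicate plates.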

[2] = compound: C=C(c1ccc(C(=O)O)cc1)c1cc2c(cc1C)C(C)(C)CCC2(C)C [Bexarotene] + C[C@@H](Oc1cc(-c2cnn(C3CCNCC3)c2)cnc1N)c1c(Cl)ccc(F)c1Cl [Crizotinib] (partner 1 µM)
How it was run: as §1

[3] = compound: C=C(c1ccc(C(=O)O)cc1)c1cc2c(cc1C)C(C)(C)CCC2(C)C [Bexarotene] + Cc1nc(Nc2ncc(C(=O)Nc3c(C)cccc3Cl)s2)cc(N2CCN(CCO)CC2)n1 [Dasatinib] (partner 0.075 µM)
How it was run: as §1

[4] = compound: C=C(c1ccc(C(=O)O)cc1)c1cc2c(cc1C)C(C)(C)CCC2(C)C [Bexarotene] + Nc1nc2[nH]cc(CCc3ccc(C(=O)N[C@@H](CCC(=O)O)C(=O)O)cc3)c2c(=O)[nH]1 [Pemetrexed] (partner 0.2 µM)
How it was run: as §1

Row | Cell Line | relative viability ([1]; first compound 0.08 µM) | relative viability ([1]; first compound 0.253 µM) | relative viability ([1]; first compound 0.8 µM) | relative viability ([1]; first compound 2.53 µM) | relative viability ([1]; first compound 8 µM) | relative viability ([2]; first compound 0.08 µM) | relative viability ([2]; first compound 0.253 µM) | relative viability ([2]; first compound 0.8 µM) | relative viability ([2]; first compound 2.53 µM) | relative viability ([2]; first compound 8 µM) | relative viability ([3]; first compound 0.08 µM) | relative viability ([3]; first compound 0.253 µM) | relative viability ([3]; first compound 0.8 µM) | relative viability ([3]; first compound 2.53 µM) | relative viability ([3]; first compound 8 µM) | relative viability ([4]; first compound 0.08 µM) | relative viability ([4]; first compound 0.253 µM) | relative viability ([4]; first compound 0.8 µM) | relative viability ([4]; first compound 2.53 µM) | relative viability ([4]; first compound 8 µM)
1 | NCI-H2085 | 0.739 | 0.723 | 0.596 | 0.703 | 0.731 | 0.863 | 0.891 | 0.831 | 0.791 | 0.74 | 0.25 | 0.2 | 0.19 | 0.218 | 0.241 | 0.832 | 0.808 | 0.753 | 0.751 | 0.74
2 | H3255 | 0.257 | 0.256 | 0.228 | 0.245 | 0.219 | 0.882 | 0.92 | 0.958 | 0.989 | 0.959 | 0.406 | 0.311 | 0.385 | 0.338 | 0.334 | 0.585 | 0.577 | 0.551 | 0.554 | 0.558
3 | NCI-H650 | 1.08 | 1.06 | 0.915 | 0.634 | 0.778 | 0.749 | 0.613 | 0.739 | 0.615 | 0.6 | 0.475 | 0.562 | 0.441 | 0.408 | 0.412 | 1.09 | 0.887 | 0.882 | 0.832 | 0.918
4 | LOU-NH91 | 0.736 | 0.755 | 0.691 | 0.695 | 0.722 | 0.767 | 0.73 | 0.696 | 0.686 | 0.639 | 0.584 | 0.613 | 0.467 | 0.521 | 0.502 | 0.449 | 0.43 | 0.399 | 0.399 | 0.386
5 | NCI-H1650 | 0.813 | 0.707 | 0.871 | 0.659 | 0.745 | 0.842 | 0.927 | 0.788 | 1.04 | 0.777 | 0.383 | 0.38 | 0.408 | 0.333 | 0.296 | 0.353 | 0.371 | 0.352 | 0.379 | 0.432
6 | NCI-H3122 | 1.09 | 1.06 | 1.12 | 1.08 | 1.12 | 0.238 | 0.261 | 0.233 | 0.276 | 0.337 | 0.755 | 0.959 | 0.729 | 0.768 | 0.701 | 0.219 | 0.202 | 0.194 | 0.217 | 0.213
7 | PC-3 [JPC-3] | 0.519 | 0.48 | 0.427 | 0.466 | 0.446 | 1.02 | 1.02 | 0.904 | 0.965 | 0.857 | 0.77 | 0.928 | 0.833 | 0.974 | 0.867 | 1.07 | 1.05 | 1.05 | 0.541 | 1
8 | NCI-H1651 | 1.08 | 0.968 | 0.887 | 0.862 | 0.753 | 0.936 | 0.89 | 0.952 | 0.968 | 0.893 | 0.518 | 0.551 | 0.363 | 0.458 | 0.374 | 0.709 | 0.487 | 0.61 | 0.617 | 0.622
9 | NCI-H2087 | 1.06 | 1.16 | 1.2 | 0.98 | 0.883 | 0.854 | 1.14 | 0.716 | 0.827 | 0.867 | 1.02 | 0.919 | 0.703 | 0.843 | 0.903 | 0.681 | 0.743 | 0.696 | 0.652 | 0.549
